Source: DBAASP
≈ marks a conversion by molar mass, not a printed value. Values belong to the molecule of their own block, whether it stands above or below them.

What was measured:
Assay in all cases: ≥ marks a high value that may be exact or a test limit, other limits are often not marked, values filed in µg/mL are converted to µM
[1] = tested on: Bacillus subtilis ATCC 62037
[2] = tested on: Candida albicans ATCC 10231
[3] = tested on: Cryptococcus neoformans ATCC 34881
[4] = tested on: Escherichia coli ATCC 27325
[5] = tested on: Pseudomonas putida ATCC 17426
[6] = tested on: Saccharomyces cerevisiae ATCC 44774
[7] = tested on: Salmonella enterica subsp. enterica serovar Enteritidis ATCC 13076
[8] = tested on: Staphylococcus aureus ATCC 15752
[9] = tested on: Streptococcus mutans ATCC 25175
[10] = tested on: Enterobacter cloacae 218R
[11] = tested on: Enterococcus faecalis ATCC 29212
[12] = tested on: Enterococcus faecalis W61950
[13] = tested on: Enterococcus faecalis f43559
[14] = tested on: Enterococcus faecium mic80
[15] = tested on: Enterococcus faecium t62764
[16] = tested on: Escherichia coli ESBL 63103
[17] = tested on: Escherichia coli ESBL 64771
[18] = tested on: Klebsiella pneumoniae ESBL 61962
[19] = tested on: Klebsiella pneumoniae ESBL 63575
[20] = tested on: Pseudomonas aeruginosa 198
[21] = tested on: Pseudomonas aeruginosa 213
[22] = tested on: Pseudomonas aeruginosa 9
[23] = tested on: Pseudomonas aeruginosa H1027
[24] = tested on: Pseudomonas aeruginosa H1030
[25] = tested on: Pseudomonas aeruginosa LES400
[26] = tested on: Pseudomonas aeruginosa PAO1 H103
[27] = tested on: Staphylococcus aureus ATCC 25923
[28] = tested on: Staphylococcus aureus C623
[29] = tested on: Stenotrophomonas maltophilia ATCC 13637
[30] = tested on: Micrococcus luteus DSM 20030
[31] = tested on: Bacillus subtilis ATCC 6633
[32] = tested on: Escherichia coli ATCC 25922
[33] = tested on: Klebsiella pneumoniae ATCC 10031
[34] = tested on: Micrococcus luteus ATCC 10240
[35] = tested on: Pseudomonas aeruginosa ATCC 27853
[36] = tested on: Salmonella enterica subsp. enterica serovar Typhimurium ATCC 14028
[37] = tested on: Shigella dysenteriae ATCC 9752
[38] = tested on: Staphylococcus aureus ATCC 6538P
[39] = tested on: Staphylococcus aureus TK784
[40] = tested on: Staphylococcus epidermidis ATCC 12228

Compound: N=C(N)NCCC[C@H](NC(=O)[C@H](CCCNC(=N)N)NC(=O)[C@@H](N)Cc1ccccc1)C(=O)N[C@@H](Cc1c[nH]c2ccccc12)C(=O)N[C@@H](Cc1c[nH]c2ccccc12)C(=O)N[C@@H](CCCCN)C(=O)N[C@@H](Cc1c[nH]c2ccccc12)C(=O)N[C@@H](Cc1ccccc1)C(=O)N[C@@H](CCCCN)C(=O)O [FRRWWKWFK]
MIC [10]: 11.8 µM (≈ 17 µg/mL) | MIC [11]: 11.8 µM (≈ 17 µg/mL) | MIC [12]: ≥ 93.8 µM | MIC [13]: ≥ 46.5 µM | MIC [14]: 2.92 µM (≈ 4.2 µg/mL) | MIC [15]: 2.92 µM (≈ 4.2 µg/mL) | MIC [16]: 5.77 µM (≈ 8.3 µg/mL) | MIC [17]: 2.92 µM (≈ 4.2 µg/mL) | MIC [18]: ≥ 46.5 µM | MIC [19]: 11.8 µM (≈ 17 µg/mL) | MIC [20]: 1.46 µM (≈ 2.1 µg/mL) | MIC [21]: 2.85 µM (≈ 4.1 µg/mL) | MIC [22]: 5.77 µM (≈ 8.3 µg/mL) | MIC [23]: 0.695 µM (≈ 1 µg/mL) | MIC [24]: 11.8 µM (≈ 17 µg/mL) | MIC [25]: 2.85 µM (≈ 4.1 µg/mL) | MIC [26]: 0.695 µM (≈ 1 µg/mL) | MIC [27]: 0.695 µM (≈ 1 µg/mL) | MIC [28]: 1.46 µM (≈ 2.1 µg/mL) | MIC [29]: 0.417 µM (≈ 0.6 µg/mL)

Compound: CC(C)C[C@H](NC(=O)[C@H](CC(C)C)NC(=O)[C@H](CCCCN)NC(=O)[C@H](CCCCN)NC(=O)[C@H](CC(C)C)NC(=O)[C@H](Cc1c[nH]c2ccccc12)NC(=O)[C@H](CCCCN)NC(=O)[C@H](CC(C)C)NC(=O)[C@H](CC(C)C)NC(=O)[C@H](CCCCN)NC(=O)[C@@H](N)CCCCN)C(N)=O [KKLLKWLKKLL]
MIC [31]: 4.47 µM (≈ 6.3 µg/mL) | MIC [32]: 8.86 µM (≈ 12.5 µg/mL) | MIC [33]: 4.47 µM (≈ 6.3 µg/mL) | MIC [34]: 4.47 µM (≈ 6.3 µg/mL) | MIC [35]: 17.7 µM (≈ 25 µg/mL) | MIC [36]: 17.7 µM (≈ 25 µg/mL) | MIC [37]: 4.47 µM (≈ 6.3 µg/mL) | MIC [38]: 4.47 µM (≈ 6.3 µg/mL) | MIC [39]: 2.84 µM (≈ 4 µg/mL) | MIC [40]: 4.47 µM (≈ 6.3 µg/mL)

Compound: CC[C@H](C)[C@H](NC(=O)[C@H](CCCN=C(N)N)NC(=O)[C@H](CCCCN)NC(=O)[C@@H](NC(=O)[C@H](Cc1c[nH]c2ccccc12)NC(=O)[C@H](Cc1c[nH]c2ccccc12)NC(=O)[C@H](Cc1c[nH]c2ccccc12)NC(=O)[C@H](CCCN=C(N)N)NC(=O)[C@@H](N)CC(C)C)[C@@H](C)CC)C(=O)O [LRWWWIKRI]
MIC [10]: 27.3 µM (≈ 37 µg/mL) | MIC [11]: 7.08 µM (≈ 9.6 µg/mL) | MIC [12]: 27.3 µM (≈ 37 µg/mL) | MIC [13]: 13.3 µM (≈ 18 µg/mL) | MIC [14]: 3.39 µM (≈ 4.6 µg/mL) | MIC [15]: 0.811 µM (≈ 1.1 µg/mL) | MIC [16]: 13.3 µM (≈ 18 µg/mL) | MIC [17]: 7.08 µM (≈ 9.6 µg/mL) | MIC [18]: ≥ 109 µM | MIC [19]: 27.3 µM (≈ 37 µg/mL) | MIC [20]: 13.3 µM (≈ 18 µg/mL) | MIC [21]: 27.3 µM (≈ 37 µg/mL) | MIC [22]: 27.3 µM (≈ 37 µg/mL) | MIC [23]: 3.39 µM (≈ 4.6 µg/mL) | MIC [24]: 13.3 µM (≈ 18 µg/mL) | MIC [25]: 13.3 µM (≈ 18 µg/mL) | MIC [26]: 7.08 µM (≈ 9.6 µg/mL) | MIC [27]: 3.39 µM (≈ 4.6 µg/mL) | MIC [28]: 3.39 µM (≈ 4.6 µg/mL) | MIC [29]: 1.77 µM (≈ 2.4 µg/mL)

Compound: CC[C@H](C)[C@H](NC(=O)[C@@H]1CCCN1C(=O)[C@H](Cc1c[nH]c2ccccc12)NC(=O)[C@H](CCC(N)=O)NC(=O)[C@H](CC(C)C)NC(=O)CNC(=O)[C@H](C)NC(=O)[C@@H](N)CCCN=C(N)N)C(=O)NCC(=O)N[C@@H](CCCN=C(N)N)C(=O)N[C@@H](CC(C)C)C(=O)N[C@@H](CC(C)C)C(=O)N[C@@H](CCCN=C(N)N)C(=O)N[C@@H](CCCN=C(N)N)C(=O)N[C@@H](CC(C)C)C(=O)N[C@@H](CC(C)C)C(=O)N[C@@H](CCCN=C(N)N)C(=O)N[C@@H](CCCN=C(N)N)C(=O)N[C@@H](CC(C)C)C(=O)N[C@@H](CC(C)C)C(=O)N[C@@H](CCCN=C(N)N)C(=O)O [RAGLQWPIGRLLRRLLRRLLR]
MIC [1]: 0.765 µM (≈ 2 µg/mL) | MIC [2]: 0.765 µM (≈ 2 µg/mL) | MIC [3]: 0.383 µM (≈ 1 µg/mL) | MIC [4]: 0.383 µM (≈ 1 µg/mL) | MIC [5]: 0.765 µM (≈ 2 µg/mL) | MIC [6]: 0.765 µM (≈ 2 µg/mL) | MIC [7]: 0.765 µM (≈ 2 µg/mL) | MIC [8]: 0.383 µM (≈ 1 µg/mL) | MIC [9]: 0.765 µM (≈ 2 µg/mL)

More lines, now with the values ahead:

MIC [1]: 22.7 µM (≈ 64 µg/mL) | MIC [2]: 11.4 µM (≈ 32 µg/mL) | MIC [3]: 5.68 µM (≈ 16 µg/mL) | MIC [4]: 22.7 µM (≈ 64 µg/mL) | MIC [5]: 22.7 µM (≈ 64 µg/mL) | MIC [6]: 11.4 µM (≈ 32 µg/mL) | MIC [7]: 11.4 µM (≈ 32 µg/mL) | MIC [8]: 22.7 µM (≈ 64 µg/mL) | MIC [9]: ≥ 45.4 µM
Compound: CC[C@H](C)[C@H](NC(=O)CNC(=O)[C@H](CCCCN)NC(=O)[C@H](CCCCN)NC(=O)[C@H](CCC(N)=O)NC(=O)[C@H](CC(C)C)NC(=O)[C@H](CCSC)NC(=O)[C@@H](NC(=O)[C@H](CCC(=O)O)NC(=O)CNC(=O)[C@@H](NC(=O)[C@H](Cc1ccccc1)NC(=O)[C@H](C)NC(=O)[C@H](CCCCN)NC(=O)CNC(=O)[C@H](Cc1ccccc1)NC(=O)[C@H](CCCCN)NC(=O)[C@H](CCCCN)NC(=O)[C@H](C)NC(=O)[C@H](CO)NC(=O)[C@H](Cc1cnc[nH]1)NC(=O)[C@H](CCSC)NC(=O)[C@H](C)NC(=O)[C@H](CCCCN)NC(=O)[C@@H]1CCCN1C(=O)[C@H](C)N)C(C)C)[C@@H](C)CC)C(=O)O [APKAMHSAKKFGKAFVGEIMLQKKGI]

MIC [30]: 4 µM (≈ 8.14 µg/mL)
Compound: CC[C@H](C)[C@H](N)C(=O)N[C@@H](CO)C(=O)N[C@@H](CCC(N)=O)C(=O)N[C@@H](CO)C(=O)N[C@@H](CC(=O)O)C(=O)N[C@@H](C)C(=O)N[C@H](C(=O)N[C@@H](CC(C)C)C(=O)N[C@@H](CO)C(=O)N[C@@H](C)C(=O)N[C@H](C(=O)N[C@@H](Cc1c[nH]c2ccccc12)C(=O)N[C@@H](CO)C(=O)NCC(=O)N[C@H](C(=O)N[C@@H](CCCCN)C(=O)N[C@@H](CO)C(=O)N[C@@H](CC(C)C)C(=O)N[C@@H](Cc1ccccc1)C(N)=O)[C@@H](C)CC)[C@@H](C)CC)[C@@H](C)CC [ISQSDAILSAIWSGIKSLF]

MIC [31]: 1.42 µM (≈ 2 µg/mL) | MIC [32]: 1.42 µM (≈ 2 µg/mL) | MIC [33]: 1.42 µM (≈ 2 µg/mL) | MIC [34]: 2.84 µM (≈ 4 µg/mL) | MIC [35]: 2.84 µM (≈ 4 µg/mL) | MIC [36]: 1.42 µM (≈ 2 µg/mL) | MIC [37]: 1.42 µM (≈ 2 µg/mL) | MIC [38]: 1.42 µM (≈ 2 µg/mL) | MIC [39]: 5.67 µM (≈ 7.99 µg/mL) | MIC [40]: 1.42 µM (≈ 2 µg/mL)
Compound: CC(C)C[C@H](NC(=O)[C@H](Cc1c[nH]c2ccccc12)NC(=O)[C@H](CCCCN)NC(=O)[C@H](CC(C)C)NC(=O)[C@H](CC(C)C)NC(=O)[C@H](CCCCN)NC(=O)[C@H](CCCCN)NC(=O)[C@H](CC(C)C)NC(=O)[C@H](CC(C)C)NC(=O)[C@@H](N)CCCCN)C(=O)N[C@@H](CCCCN)C(N)=O [KLLKKLLKWLK]
